Patent publication US11330821B2, “Herbicidal compounds” (Syngenta Participations AG, priority 2015, dated 2022)

How the values were obtained:
Format in all cases: in vivo
Conditions in all cases: post-emergence spray, evaluated after 13 days
[1] = system: Amaranthus retroflexus (AMARE); test: Post-emergence efficacy, Amaranthus retroflexus
Procedure: (§1) B1 Post-Emergence Efficacy
(§2) Seeds of a variety of test species are shown in standard soil in pots:—Solanum nigrum (SOLNI), Amaranthus retroflexus (AMARE), Setaria faberi (SETFA), Echinochloa crus-galli (ECHCG), Ipomoea hederacea (IPOHE), Lolium perenne (LOLPE). After 8 days cultivation (post-emergence) under controlled conditions in a glasshouse (at 24/16° C., day/night; 14 hours light; 65% humidity), the plants are sprayed with an aqueous spray solution derived from the formulation of the technical active ingredient in acetone/water (50:50) solution containing 0.5% Tween 20 (polyoxyethylene sorbitan monolaurate, CAS RN 9005-64-5). Compounds are applied at 1000 and 62.5 g/ha. The test plants are then grown in a glasshouse under controlled conditions in a glasshouse (at 24/16° C., day/night; 14 hours light; 65% humidity) and watered twice daily. After 13 days, the test is evaluated for the percentage damage caused to the plant. The biological activities are assessed on a five point scale (5=80-100%; 4=60-79%; 3=40-59%; 2=20-39%; 1=0-19%).

Solanum nigrum (SOLNI) = test: Post-emergence efficacy, Solanum nigrum
Procedure: as §1, §2

Setaria faberi (SETFA) = test: Post-emergence efficacy, Setaria faberi
Procedure: as §1, §2

Lolium perenne (LOLPE) = test: Post-emergence efficacy, Lolium perenne
Procedure: as §1, §2

[2] = system: Echinochloa crus-galli (ECHCG); test: Post-emergence efficacy, Echinochloa crus-galli
Procedure: as §1, §2

[3] = system: Ipomoea hederacea (IPOHE); test: Post-emergence efficacy, Ipomoea hederacea
Procedure: as §1, §2

Row | Compound | AMARE percentage damage caused to the plant (five point scale) ([1]; 62.5 g/ha) | AMARE percentage damage caused to the plant (five point scale) ([1]; 1000 g/ha) | SOLNI percentage damage caused to the plant (five point scale) (Solanum nigrum (SOLNI); 62.5 g/ha) | SOLNI percentage damage caused to the plant (five point scale) (Solanum nigrum (SOLNI); 1000 g/ha) | SETFA percentage damage caused to the plant (five point scale) (Setaria faberi (SETFA); 62.5 g/ha) | SETFA percentage damage caused to the plant (five point scale) (Setaria faberi (SETFA); 1000 g/ha) | LOLPE percentage damage caused to the plant (five point scale) (Lolium perenne (LOLPE); 62.5 g/ha) | LOLPE percentage damage caused to the plant (five point scale) (Lolium perenne (LOLPE); 1000 g/ha) | ECHCG percentage damage caused to the plant (five point scale) ([2]; 62.5 g/ha) | ECHCG percentage damage caused to the plant (five point scale) ([2]; 1000 g/ha) | IPOHE percentage damage caused to the plant (five point scale) ([3]; 62.5 g/ha) | IPOHE percentage damage caused to the plant (five point scale) ([3]; 1000 g/ha)
1 | Cc1nn(C)c(=O)c(-c2c(Cl)ccc(Cl)c2OCc2ccnc(Cl)c2)c1O [Compound 1.14] | 5 (5=80-100%) | 5 (5=80-100%) | 4 (4=60-79%) | 5 (5=80-100%) | 4 (4=60-79%) | 5 (5=80-100%) | 3 (3=40-59%) | 5 (5=80-100%) | 4 (4=60-79%) | 5 (5=80-100%) | 5 (5=80-100%) | 5 (5=80-100%)
2 | Cc1nn(C)c(=O)c(-c2c(Cl)ccc(Cl)c2OCc2nccs2)c1O [Compound 1.04] | 5 (5=80-100%) | 5 (5=80-100%) | 5 (5=80-100%) | 5 (5=80-100%) | 5 (5=80-100%) | 5 (5=80-100%) | 3 (3=40-59%) | 5 (5=80-100%) | 4 (4=60-79%) | 5 (5=80-100%) | 5 (5=80-100%) | 5 (5=80-100%)
3 | Cc1nn(C)c(=O)c(-c2c(Cl)ccc(Cl)c2OCc2cncs2)c1O [Compound 1.06] | 4 (4=60-79%) | 5 (5=80-100%) | 5 (5=80-100%) | 5 (5=80-100%) | 5 (5=80-100%) | 5 (5=80-100%) | 4 (4=60-79%) | 5 (5=80-100%) | 5 (5=80-100%) | 5 (5=80-100%) | 5 (5=80-100%) | 5 (5=80-100%)
4 | CC1=NN(C)C(=O)C(c2c(Cl)ccc(Cl)c2OCc2cnc(Cl)s2)C1=O (stereo not drawn) [Compound 1.19, 4-[3,6-dichloro-2-[(2-chlorothiazol-5-yl)methoxy]phenyl]-2,6-dimethyl-pyridazine-3,5-dione] | 5 (5=80-100%) | 5 (5=80-100%) | 5 (5=80-100%) | 5 (5=80-100%) | 5 (5=80-100%) | 5 (5=80-100%) | 5 (5=80-100%) | 5 (5=80-100%) | 3 (3=40-59%) | 5 (5=80-100%) | 5 (5=80-100%) | 5 (5=80-100%)
5 | Cc1nn(C)c(=O)c(-c2c(F)ccc(Cl)c2OCc2ccncc2)c1O [Compound 1.24] | 2 (2=20-39%) | 5 (5=80-100%) | 4 (4=60-79%) | 5 (5=80-100%) | 1 (1=0-19%) | 5 (5=80-100%) | 1 (1=0-19%) | 5 (5=80-100%) | 3 (3=40-59%) | 5 (5=80-100%) | 4 (4=60-79%) | 5 (5=80-100%)
